# ChEMBL document CHEMBL1150217, “Molecular structure and activity toward DNA of baicalein, a flavone constituent of the Asian herbal medicine "Sho-saiko-to"” (J Nat Prod, 2001)
# Active and inactive are the calls of the source. No cut-off for these calls is given here.
# Legend:
# [1] = test system: Human immunodeficiency virus; test: Inhibition of HIV integrase
# [2] = test system: Calf thymus DNA; test: Binding affinity to calf thymus DNA assessed as intercalation by agarose gel electrophoresis; assay type: nucleic-acid assay; settings: Bos taurus
smiles,measurement,setting,value
O=c1cc(-c2ccccc2)oc2cc(O)c(O)c(O)c12,Activity,[1],Active
same,Activity,[2],Active
